US20150366199A1, “COMPOSITIONS COMPRISING GOUGEROTIN AND AN INSECTICIDE” (priority 2013, published 2015)
Read-outs that look alike come from different tables or passages of the source.

Columns and labels:
[1] = test system: fall armyworm larvae (Spodoptera frugiperda); assay: Spodoptera frugiperda - spray test; conditions: for Efficacy in % after 2d: mortality after 2 d; for Efficacy in % after 6d: mortality after 6 d
Experimental: Solvent: 78.0 parts by weight acetone • 1.5 parts by weight dimethylformamide
To produce a suitable preparation of NRRL B-50550, 1 part by weight of NRRL B-50550 75 WP is mixed with the stated amount of solvents and is diluted with water, containing an emulsifier concentration of 1000 ppm, to the desired concentration. Further test concentrations are prepared by dilution with emulsifier containing water.
Maize (Zea mais) leaf sections are sprayed with a preparation of the active ingredient of the desired concentration. Once dry, the leaf sections are infested with fall armyworm larvae (Spodoptera frugiperda).
After the specified period of time, mortality in % is determined 100% means all caterpillars have been killed and 0% means none of the caterpillars have been killed. The mortality values determined thus are recalculated using the Colby-formula.

[2] = test system: green peach aphid (Myzus persicae); assay: Myzus persicae - spray test (pepper leaves, Example 8); assay type: in vivo; conditions: 0.5 ppm
[3] = test system: two spotted spidermite (Tetranychus urticae); assay: Tetranychus urticae - spray test, OP-resistant; assay type: in vivo; conditions: mortality after 6 d
From the text: (§1) Emulsifier: alkylaryl polyglycol ether

[4] = test system: green peach aphid (Myzus persicae); assay: Myzus persicae - spray test (Chinese cabbage leaf-disks, Example 6); assay type: in vivo; conditions: for Efficacy in % after 6d: mortality after 6 d; for Efficacy in % after 1d: mortality after 1 d
From the text: as §1

[5] = test system: mustard beetle larvae (Phaedon cochleariae); assay: Phaedon cochleariae - spray test; conditions: for Efficacy in % after 2d: mortality after 2 d; for Efficacy in % after 6d: mortality after 6 d
Experimental: The expected efficacy of a given combination of two compounds is calculated as follows (see Colby, S. R., “Calculating Synergistic and antagonistic Responses of Herbicide Combinations”, Weeds 15, pp. 20-22, 1967):
Solvent: 78.0 parts by weight of acetone • • 1.5 parts by weight of dimethylformamide
To produce a suitable preparation of a NRRL B-50550, 1 part by weight of NRRL B-50550 75 WP was mixed with the stated amount of solvents and was diluted with water, containing an emulsifier concentration of 1000 ppm, to the desired concentration. Further test concentrations are prepared by dilution with emulsifier containing water.
Chinese cabbage (Brassica pekinensis) leaf-disks are sprayed with a preparation of the active ingredient of the desired concentration. Once dry, the leaf disks are infested with mustard beetle larvae (Phaedon cochleariae).
After the specified period of time, mortality in % is determined 100% means all beetle larvae have been killed and 0% means none of the beetle larvae have been killed. The mortality values determined thus are recalculated using the Colby-formula.

[6] = test system: mites; conditions: cited from earlier work
[7] = cited from earlier work
[8] = test system: pin worm; conditions: parasites on animals, such as pin worm, cited from earlier work
[9] = test system: gram-positive, gram-negative bacteria and tubercule bacillus; conditions: cited from earlier work

Spinetoram
Efficacy in % after 2d ([1]; 0.64 ppm): 0%

CS/C(C)=N\OC(=O)N(C)SN(C)C(=O)O/N=C(\C)SC [Thiodicarb]
Efficacy in % after 2d ([1]; 40 ppm): 0%

N#C/N=C1\SCCN1Cc1ccc(Cl)nc1 [Thiacloprid]
Efficacy in % after 2d ([2]; mortality after 2 d): 40%
Efficacy in % after 3d ([2]; mortality after 3 d): 20%
Efficacy in % after 7d ([2]; mortality after 7 d): 10%

O=[N+]([O-])NC1=NCCN1Cc1ccc(Cl)nc1 [Imidacloprid]
Efficacy in % after 6d ([3]; 2 ppm): 0%

CNC(=O)Oc1cc(C)c(SC)c(C)c1 [Methiocarb]
Efficacy in % after 6d ([4]; 2000 ppm): 0%

Spinosad
Efficacy in % after 2d ([5]; 80 ppm): 50%
Efficacy in % after 6d ([1]; 0.64 ppm): 0%

CC1(C)C(C=C(Cl)Cl)C1C(=O)OC(C#N)c1ccc(F)c(Oc2ccccc2)c1 (stereo not drawn) [β-Cyfluthrin, beta-Cyfluthrin]
Efficacy in % after 6d ([5]; 1.6 ppm): 0%
Efficacy in % after 6d ([1]; 1.6 ppm): 0%
Efficacy in % after 6d ([4]; 1.6 ppm): 0%

Cc1c(F)c(F)c(COC(=O)[C@@H]2[C@H](/C=C(\Cl)C(F)(F)F)C2(C)C)c(F)c1F (racemic) [Tefluthrin]
Efficacy in % after 2d ([5]; 40 ppm): 0%

CNC(=O)c1cc(C#N)cc(C)c1NC(=O)c1cc(Cn2nnc(C(F)(F)F)n2)nn1-c1ncccc1Cl [1-(3-chloropyridin-2-yl)-N-[4-cyano-2-methyl-6-(methylcarbamoyl)phenyl]-3-{[5-(trifluoromethyl)-2H-tetrazol-2-yl]methyl}-1H-pyrazole-5-carboxamide]
Efficacy in % after 6d ([5]; 0.128 ppm): 0%
Efficacy in % after 2d ([5]; 0.64 ppm): 50%
Efficacy in % after 6d ([1]; 0.64 ppm): 33%

N#Cc1nn(-c2c(Cl)cc(C(F)(F)F)cc2Cl)c(N)c1[S+]([O-])C(F)(F)F (stereo not drawn) [Fipronil]
Efficacy in % after 6d ([1]; 16 ppm): 0%

CC(c1ccc(C(F)(F)F)nc1)S(C)(=O)=NC#N (stereo not drawn) [Sulfoxaflor]
Efficacy in % after 1d ([4]; 0.64 ppm): 0%

Cc1cc(C(F)(C(F)(F)F)C(F)(F)F)ccc1NC(=O)c1cccc(I)c1C(=O)NC(C)(C)CS(C)(=O)=O [Flubendiamide]
Efficacy in % after 2d ([1]; 3.2 ppm): 33%

CNC(=O)c1cc(C#N)cc(C)c1NC(=O)c1cc(Br)nn1-c1ncccc1Cl [Cyantraniliprole]
Efficacy in % after 6d ([5]; 0.64 ppm): 0%
Efficacy in % after 6d ([3]; 80 ppm): 0%
Efficacy in % after 6d ([4]; 0.64 ppm): 0%
Efficacy in % after 6d ([4]; 3.2 ppm): 0%
Efficacy in % after 1d ([4]; 16 ppm): 0%

CNC(=O)c1cc(Cl)cc(C)c1NC(=O)c1cc(Br)nn1-c1ncccc1Cl [Chlorantraniliprole]
Efficacy in % after 6d ([3]; 16 ppm): 0%
Efficacy in % after 1d ([4]; 3.2 ppm): 0%

CNCC(=O)NC(CO)C(=O)NC1C(C(N)=O)OC(n2ccc(N)nc2=O)C(O)C1O [Gougerotin, 1-(4-Amino-2-oxo-1(2H)-pyrimidinyl)-1,4-dideoxy-4-[[N—(N-methylglycyl)-D-seryl]amino]-b-D-glucopyranuronamide]
acaricidal (miticidal) effect [6]: acaricidal (miticidal) effect
water solubility [7]: water soluble
parasiticidal activity [8]: inhibitory effect on the ovulation of pin worms
parasiticidal activity ([8]; listed as gougerotin): parasiticidal action
antibacterial activity [9]: weak

Cc1cc(F)c(-n2nc(C(F)(F)F)nc2N)cc1[S+]([O-])CC(F)(F)F (stereo not drawn) [1-{2-fluoro-4-methyl-5-[(2,2,2-trifluorethyl)sulfinyl]phenyl}-3-(trifluoromethyl)-1H-1,2,4-triazol-5-amine]
Efficacy in % after 6d ([3]; 3.2 ppm): 0%

CN/C(=N\[N+](=O)[O-])NCc1cnc(Cl)s1 [Clothianidin]
Efficacy in % after 6d ([4]; 0.32 ppm): 0%
